The values below come from PMC7034072, “Discovery of small molecule inhibitors of Leishmania braziliensis Hsp90 chaperone” (Journal of Enzyme Inhibition and Medicinal Chemistry, 2020).

The test system of assay [1] is promastigote form of L. braziliensis. The assay can be described thus: Cell viability assay (MTT/PMS), single concentration. The assay is classed as cell-based. As to conditions: L. braziliensis promastigotes; for Cell viability / reduced cell viability: 200 μM/well; for Cell viability: MTT/PMS, Yes = leishmanicidal activity; for reduced cell viability: after 72 h. As for the experimental part:
The leishmanicidal activity of the compounds was tested in vitro against the promastigote form of L. braziliensis applying 200 μM/well, (with a total of 0.5% DMSO) into 90 μL of culture. The concentration of L. braziliensis (MHOM/BR/1973/M2269) was adjusted to 10^7 cells/mL. Amphotericin (100 μM/well) was used as positive control, and 0.5% DMSO as negative control.
The plates were incubated at room temperature (RT) for 72 h. After this period, the viability of the promastigotes was verified via MTT (3–(4, 5-Dimethylthiazol-2-yl)-2, 5-Diphenyltetrazolium Bromide) colorimetric assay. MTT/PMS 11.1 μL/well solution (MTT = 5 mg/mL; Phenazine methosulfate-PMS = 0.22 mg/mL) was added, and the plate was incubated at RT for 4 h, at 150 RPM, protected from light. Formazan crystals were then solubilised by adding 100 μL/well of a solubilisation solution containing 7% SDS, 10 mM HCl and 30% DMSO. The mixture was incubated at RT for 90 min at 150 RPM protected from light. Wells containing the medium and the compounds or DMSO without MTT were used as blank controls. The absorbance was quantified in a plate reader (Biotek Synergy HT) at 570 nm.
The cell viability percentages were calculated by the following equation: (1) Cell viability %= AT−AB/AU−AB ×100 where AT was an averaged absorbance from treated samples, AB blank absorbance and AU was an averaged absorbance from negative control.

Assay [2] concerns LbHsp90 and LbHsp90N recombinant proteins. The assay can be described thus: Differential scanning fluorimetry (thermal shift assay). As to conditions: DSF; for Thermal shift: inclusion criterion Tm variation greater or equal to ± 2 °C in LbHsp90 or LbHsp90N, Yes/No. The assay is classed as binding, L. braziliensis. As for the experimental part: The interaction of Hsp90 proteins with different compounds was monitored through the melting temperature (Tm) of each protein in the presence of a fixed concentration of the target compound by differential scanning fluorimetry (DSF) also referred as thermal shift assay. A final concentration of 10 µM of dimeric LbHsp90 and 20 µM of monomeric LbHsp90N in 40 mM Hepes buffer (pH 7.5) containing 100 mM KCl were used. The DMSO concentration in each sample was fixed at 2.5% (v/v). Prior to the readings, the samples were incubated for 30 min on ice. The fluorophore Sypro Orange (Life Technologies) was used as fluorescent probe. The experiments were performed at a thermocycler CFX96 Touch Real Time PCR Detection System (BioRad) and the data were analysed using the CFX Manager software (BioRad). As positive controls, 100 µM of GA and Radicicol (RDC) were used.
For orientation: DSF heats the sample and reads unfolding from a dye or from intrinsic fluorescence.

Assay [3] deals with promastigote forms of L. braziliensis. Briefly: In vitro IC50 determination (leishmanicidal activity, MTT/PMS). The format is cell-based. As to conditions: promastigotes, 72 h, RT. As for the experimental part: Amphotericin 100 μM/well and 0.5% DMSO were used as positive and negative control, respectively. The plates were incubated at RT for 72 h. After this, the viability of the promastigotes was verified by MTT/PMS colorimetric assay, as described above. In vitro leishmanicidal activity, expressed as IC50, was determined using GraphPad Prism 5 software according to the following equation: (2) y= Amin + Amax−Amin/1+10^logIC50 −x*Hillslope where Amin and Amax are, respectively, the minimum and maximum activities obtained, x is the ligand concentration and Hill Slope is the parameter that describes the steepness of the curve.
The selectivity index parameter was obtained by the ratio of compound IC50 against mammalian cells and compound IC50 against promastigote cells.

The subject of assay [4] is Balb-c 3T3 clone A31 mouse fibroblasts. Briefly: Cytotoxic assay (MTT). The assay is classed as cell-based. The settings on record: Balb-c 3T3 mouse fibroblasts, 72 h, 37 °C. The procedure: Compounds cytotoxicity was evaluated in 100 μL of Balb-c 3T3 cone A31 mouse fibroblasts (10^5 cells/mL) into a 96-well plate, incubated for 24 h at 37 °C to become adhered. After this period, the medium was washed and 100 μL of each compound was added to the culture medium (concentration ranging from 1 to 200 μM/well, with a total of 0.5% DMSO) in quadruplicate. Rapamycin was used as a positive control, and 0.5% DMSO was used as negative control. The plates were incubated for 72 h at 37 °C. After this, the viability of Balb-c 3T3 cells was evaluated by MTT colorimetric assay, as described previously.

The target of the next assay is LbHsp90 (Leishmania braziliensis, UniProt A4HL70). Briefly: Tryptophan fluorescence quenching interaction assay. The assay is classed as binding. The procedure: (§1) Two µM of protein in 40 mM Hepes buffer (pH 7.5), 100 mM KCl, was incubated for 30 min on ice with increasing concentrations of the compounds diluted in DMSO. […] The samples were excited at 280 nm and the emission was collected in the 300–400 nm range, in a 1.0 × 0.2 cm optical path cuvette, on an F-4500 Fluorescence Spectrophotometer (Hitachi). The fluorescence quenching was analysed at the maximum emission wavelength in the absence of ligand. The determination of the apparent dissociation constant (KDapp) was performed by fitting the fluorescence values obtained for each compound concentration according to a dose-response model through the Equation (3): (3) y = Fmin + (Fmax−Fmin)/(1+10^(logKD− [ligand])) where Fmin and Fmax are the minimum and maximum fluorescence intensity and [ligand] is the compound concentration used in the assay, according to the GraphPad Prism 5 software. The fluorescence intensities were corrected by inner filter effects as previously described.
LbHsp90, sequence (A4HL70 entry or part of it): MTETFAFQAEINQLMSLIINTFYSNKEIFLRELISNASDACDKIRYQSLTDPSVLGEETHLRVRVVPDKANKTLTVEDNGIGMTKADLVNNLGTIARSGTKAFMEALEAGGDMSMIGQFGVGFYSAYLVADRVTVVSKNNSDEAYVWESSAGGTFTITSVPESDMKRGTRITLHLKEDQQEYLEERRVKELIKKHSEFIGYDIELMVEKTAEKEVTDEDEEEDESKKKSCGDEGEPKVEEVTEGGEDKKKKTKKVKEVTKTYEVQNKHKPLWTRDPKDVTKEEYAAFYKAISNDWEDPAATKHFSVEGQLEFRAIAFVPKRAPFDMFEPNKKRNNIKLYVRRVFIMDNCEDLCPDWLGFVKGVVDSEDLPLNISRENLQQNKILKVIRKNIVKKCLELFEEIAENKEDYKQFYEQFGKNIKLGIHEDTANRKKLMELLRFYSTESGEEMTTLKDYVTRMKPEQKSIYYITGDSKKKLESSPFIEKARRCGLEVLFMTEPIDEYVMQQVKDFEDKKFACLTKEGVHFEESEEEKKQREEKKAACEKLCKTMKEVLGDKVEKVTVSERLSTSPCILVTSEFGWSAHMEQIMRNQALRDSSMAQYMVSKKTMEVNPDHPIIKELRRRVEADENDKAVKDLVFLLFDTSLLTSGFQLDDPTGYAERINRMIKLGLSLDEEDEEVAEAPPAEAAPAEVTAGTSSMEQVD

The target in assay [5] is T1, hHsp90β (Homo sapiens, UniProt P08238).
T1 construct: made in house; host or cells: Escherichia coli BL21(DE3)
T1 sequence (P08238 whole entry): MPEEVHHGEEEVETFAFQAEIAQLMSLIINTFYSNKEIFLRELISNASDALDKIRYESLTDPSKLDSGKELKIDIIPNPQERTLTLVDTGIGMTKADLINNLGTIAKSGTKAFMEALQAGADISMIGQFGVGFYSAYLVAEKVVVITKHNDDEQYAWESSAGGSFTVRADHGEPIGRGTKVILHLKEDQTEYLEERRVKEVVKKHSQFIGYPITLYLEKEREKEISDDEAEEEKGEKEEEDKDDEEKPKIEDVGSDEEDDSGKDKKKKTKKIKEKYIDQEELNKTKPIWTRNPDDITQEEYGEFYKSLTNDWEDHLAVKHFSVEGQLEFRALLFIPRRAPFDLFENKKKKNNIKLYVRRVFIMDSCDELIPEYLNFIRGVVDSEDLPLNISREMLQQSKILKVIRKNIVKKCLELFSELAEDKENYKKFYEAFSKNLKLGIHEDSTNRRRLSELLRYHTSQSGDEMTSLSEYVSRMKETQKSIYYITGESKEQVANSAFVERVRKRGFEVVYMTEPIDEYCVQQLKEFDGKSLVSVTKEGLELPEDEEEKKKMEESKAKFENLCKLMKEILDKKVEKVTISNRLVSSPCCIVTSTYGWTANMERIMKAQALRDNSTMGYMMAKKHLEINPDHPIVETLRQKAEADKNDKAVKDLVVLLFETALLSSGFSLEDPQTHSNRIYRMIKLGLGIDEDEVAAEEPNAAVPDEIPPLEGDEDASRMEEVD
Described as above. The format is binding. The procedure:
as §1

Another assay deals with T2, hHsp90βN (Homo sapiens, UniProt P08238).
T2 construct: N-terminal domain construct (Hsp90βN – residues 1–223); His-tag (cleaved yes); made in house; host or cells: Escherichia coli BL21(DE3)
T2 sequence (P08238 1-223): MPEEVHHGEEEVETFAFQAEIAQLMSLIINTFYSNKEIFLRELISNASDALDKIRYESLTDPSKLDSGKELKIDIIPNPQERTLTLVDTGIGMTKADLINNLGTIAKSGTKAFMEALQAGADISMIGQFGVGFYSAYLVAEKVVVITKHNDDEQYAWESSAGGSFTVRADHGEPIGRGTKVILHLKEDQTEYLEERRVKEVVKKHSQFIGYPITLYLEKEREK
The assay is described as above. The format is binding. The settings on record: N-terminal domain. As for the experimental part:
as §1

Assay [6] addresses T1, hHsp90β. The assay can be described thus: ATPase activity inhibition assay (EnzChek Pi quantification). The format is biochemical. As to conditions: 50 μM compound, 2 μM enzyme, 2.5 mM ATP. The procedure: The ATPase activity of LbHsp90 and hHsp90β was evaluated spectrophotometrically through inorganic phosphate (Pi) quantification following ATP hydrolysis, by the EnzChek™ assay kit (Invitrogen®) as previous described[31]^,[34]. Briefly, a 2 µM solution of LbHsp90 and hHsp90β enzymes was prepared in 150 mM NaCl, 5 mM MgCl2 and 20 mM Tris-HCl, pH 7.5, and incubated with ATP (concentration range 0–5 mM) for 60 min at 37 °C. Then, the chromogenic substrate 2-amino-6-mercapto 7-methyl purine riboside (MESG) and the purine nucleoside phosphorylase (PNP) were added and the resulting reaction mixture was incubated for 30 min at 37 °C. The assays were performed in a 96-well plate and kinetic parameters determined by Michaelis–Menten fitting using GraphPad Prism 6 software.
Initial screenings were performed using 50 μM compound concentration in a reaction mixture consisting of 2 μM enzyme and 2.5 mM ATP. After 1 h incubation at 37 °C, MESG and PNP were added. The amount of Pi was estimated after 30 min incubation at 37 °C. […] A compound concentration ranging from 1 to 75 μM was included in the reaction mixture and Pi quantification performed as previously described (measurements were performed in triplicate). IC50 values were determined by non-linear regression data fitting (using GraphPad Prism 6 software).

Consider `C[C@@H]1[C@H](O)[C@@H](C)/C=C/C=C/C=C/C=C/C=C/C=C/C=C/[C@H](O[C@@H]2O[C@H](C)[C@@H](O)[C@H](N)[C@@H]2O)C[C@@H]2O[C@](O)(C[C@@H](O)C[C@@H](O)[C@H](O)CC[C@@H](O)C[C@@H](O)CC(=O)O[C@H]1C)C[C@H](O)[C@H]2C(=O)O` [Amphotericin, reference compound], for which, in assay [1] (positive control, 100 μM/well, 72 h), the killing activity result is “more than 95%”.
Regarding `NC(=O)c1ccc(-c2nccc3occc23)cc1` [Glb01], in assay [2], the Thermal shift entry is given as “No”. In addition, the Cell viability entry in assay [1] (72 h) was “No”.
Consider `CCC(=O)NCc1cccc(-c2ccnc3[nH]ccc23)c1` [Glb02], for which, in assay [2], the Thermal shift entry is “positive outcomes and Yes”. In assay [1] (72 h), the Cell viability entry was “No”.
Regarding `NC(=O)Nc1cccc(C(=O)OCc2ccccc2C(F)(F)F)c1` [Glb04], the Thermal shift entry in assay [2] was “No”. Moreover, the Cell viability result in assay [1] (72 h) is given as “No”.
As to `NC(=O)c1ccc(C(=O)N2CCc3ccccc32)cc1` [Glb05], the Thermal shift result in assay [2] is “No”. The Cell viability entry in assay [1] (72 h) is given as “No”.
As to `CS(=O)(=O)N1CCN(c2ccc(C(N)=O)cc2)CC1` [Glb06], in assay [2], the Thermal shift entry was “No”. Also, the Cell viability entry in assay [1] (72 h) is “No”.
Regarding `NC(=O)c1cn(Cc2cccc3cccnc23)nc1-c1ccccc1` [Glb07], the Thermal shift entry in assay [2] is on record as “No”. The Cell viability result in assay [1] (72 h) is listed as “No”.
On to `CC(C)(C)c1cc(CSC(=N)N)cc(C(C)(C)C)c1O` [Glb11], for which the Thermal shift entry in assay [2] is “positive outcomes and Yes”. In addition, in assay [1] (72 h), the Cell viability entry is given as “No”.
On to `Nc1nc(Cc2ccccc2)n[nH]1` [Glb12], for which the Thermal shift result in assay [2] is reported as “No”. Further, the Cell viability entry in assay [1] (72 h) was “No”.
With `Cn1cc(-c2ccc(F)cc2)c2nc[nH]c(=O)c21` [Glb13], the Thermal shift result in assay [2] was “No”. In assay [1] (72 h), the Cell viability result is recorded as “No”.
For the molecule `N=C(N)NCc1cn(-c2ccccc2)nc1-c1ccccc1` [Glb14], the Thermal shift entry in assay [2] is reported as “No”. Besides, the Cell viability result in assay [1] (72 h) is reported as “Yes”. In assay [1], the reduced cell viability result is “more than 60%”. Moreover, the IC50 (commonly the midpoint of a concentration-inhibition curve) in assay [3] was 30 ± 1 µM; in assay [4], over 200 µM.
For `N=C(N)NCc1ccc(Oc2ccc(F)cc2)cc1` [Glb16], the Thermal shift result in assay [2] was “positive outcomes and Yes”. Also, the Cell viability entry in assay [1] (72 h) is on record as “Yes”. Moreover, the reduced cell viability entry in assay [1] is “more than 60%”. Further, the IC50 amounted to 12 ± 2 µM in assay [3] and 23 ± 1 µM in assay [4].
As for `Cc1cccc(Oc2ccccc2CNC(=N)N)c1` [Glb17], in assay [2], the Thermal shift entry was “No”. For the same molecule, in assay [1] (72 h), the Cell viability result is reported as “Yes”. Also, in assay [1], the reduced cell viability result was “more than 60%”. Further, the IC50 stood at 4 ± 1 µM in assay [3] and 58 ± 1 µM in assay [4]. The “tryptophan fluorescence quenching (qualitative)” value on LbHsp90 (LbHsp90 constructions) and on hHsp90β [5] (hHsp90β constructions) was “did not induce tryptophan fluorescence quenching” in each case. Moreover, the “KDapp hHsp90β” value at hHsp90β [5] (full-length, tryptophan fluorescence quenching) is on record as “Ambiguous^#”. For the same molecule, on hHsp90βN, the “KDapp hHsp90βN” value is on record as “Ambiguous^#”.
On to `N=C(N)SCc1cc(=O)oc2cc3c(cc12)CCC3` [Glb18], for which the Thermal shift result in assay [2] is “No”. In addition, the Cell viability entry in assay [1] (72 h) is given as “No”.
Consider `N=C(N)SCc1cccc(OCC(N)=O)c1` [Glb19], for which the Thermal shift entry in assay [2] was “No”. For the same molecule, the Cell viability entry in assay [1] (72 h) was “No”.
As for `COc1ccc(C2(CNC(=N)N)CC2)cc1` [Glb20], the Thermal shift result in assay [2] was “No”. Besides, the Cell viability entry in assay [1] (72 h) is “No”.
With `N=C(N)Nc1nc(-c2ccccc2)c(CC(=O)O)s1` [Glb21], in assay [2], the Thermal shift result is on record as “No”. The Cell viability result in assay [1] (72 h) was “No”.
Take `N=C(N)SCc1ccc(C(=O)O)cc1` [Glb22]: the Thermal shift entry in assay [2] is “No”. Further, the Cell viability entry in assay [1] (72 h) is recorded as “No”.
In the case of `Cn1c(CSC(=N)N)c(Cl)c(=O)n1-c1ccccc1` [Glb24], in assay [2], the Thermal shift result was “No”. For the same molecule, in assay [1] (72 h), the Cell viability entry is reported as “No”.
Turning to `Cc1cc(CSC(=N)N)cc(C(C)(C)C)n1` [Glb26], in assay [2], the Thermal shift entry is listed as “No”. Further, the Cell viability result in assay [1] (72 h) is recorded as “No”.
As for `N=C(N)NN=Cc1ccc2cccc(OCc3ccccc3)c2n1` [Glb27], in assay [2], the Thermal shift result is “positive outcomes and Yes”. Moreover, the Cell viability entry in assay [1] (72 h) is reported as “Yes”. Also, in assay [1], the reduced cell viability result is listed as “more than 60%”. For the same molecule, the IC50 came out at 11 ± 1 µM in assay [3] and 13 ± 2 µM in assay [4]. Also, the Kd was 7 ± 1 µM at LbHsp90 (full-length, tryptophan fluorescence quenching, read-out: KDapp LbHsp90); 5 ± 4 µM on hHsp90β [5] (full-length, tryptophan fluorescence quenching, read-out: KDapp hHsp90β); 6 ± 2 µM at hHsp90βN (read-out: KDapp hHsp90βN). For the same molecule, the “percentage inhibition of hHsp90β ATPase activity” value at hHsp90β [6] was “lower than 60%”.
In the case of `N=C(N)NCc1nn(Cc2ccccc2)c(=O)c2ccccc12` [Glb28], the Thermal shift result in assay [2] was “No”.
On to `C[C@@H]1C[C@H]2O[C@@H]2/C=C\C=C\C(=O)Cc2c(Cl)c(O)cc(O)c2C(=O)O1` [RDC, Radicicol, reference compound], for which the ΔTm (in general, the change in melting temperature against a reference sample) in assay [2] (100 µM positive controls, protein stabilisation) was over 2.0 °C.
